Results taken from paper PMC3266496 (2011).

Experiments:
trypanothione reductase [1] = biological target: T1, trypanothione reductase (Leishmania infantum, UniProt A4HSF7); assay: X-ray crystal structure at […] Å; type: biochemical
trypanothione reductase [2] = biological target: T1, trypanothione reductase; assay: NADPH oxidation kinetics at […] nm, Lineweaver–Burk and Dixon plots; type: biochemical

T1 sequence (A4HSF7 1-491): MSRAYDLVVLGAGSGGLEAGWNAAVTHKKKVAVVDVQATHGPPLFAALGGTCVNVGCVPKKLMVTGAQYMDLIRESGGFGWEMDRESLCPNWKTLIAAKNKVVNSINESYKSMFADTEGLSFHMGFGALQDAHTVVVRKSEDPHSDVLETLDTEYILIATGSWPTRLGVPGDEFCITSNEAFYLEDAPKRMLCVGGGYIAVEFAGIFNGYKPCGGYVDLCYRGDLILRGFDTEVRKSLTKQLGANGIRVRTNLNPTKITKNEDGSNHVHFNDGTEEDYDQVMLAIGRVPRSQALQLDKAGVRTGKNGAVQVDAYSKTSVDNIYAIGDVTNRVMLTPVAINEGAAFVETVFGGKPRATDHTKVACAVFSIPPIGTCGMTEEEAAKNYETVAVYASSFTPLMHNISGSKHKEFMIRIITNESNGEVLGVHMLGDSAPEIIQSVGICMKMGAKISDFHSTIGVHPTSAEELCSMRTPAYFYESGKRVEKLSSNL

CC[P](CC)(CC)=[Au][S][C@@H]1O[C@H](COC(C)=O)[C@@H](OC(C)=O)[C@H](OC(C)=O)[C@H]1OC(C)=O [AF, auranofin]
Ki (trypanothione reductase [1]): 155 ± 35 nM

CCP(CC)CC.[Au+].[Cl-] [CTPAu, Chloro(triethylphosphine)gold(I)]
Ki (trypanothione reductase [2]): 18 ± 7 nM
